The values that follow come from US20110319411A1, “ISOINDOLINONE AND RELATED ANALOGS AS SIRTUIN MODULATORS” (Sirtis Pharmaceuticals, Inc., priority 2008, published 2011).

The target of this assay is T1, SIRT1 (Homo sapiens, UniProt Q96EB6).
T1 construct: made in house; host or cells: E. coli BL21(DE3)
T1 sequence (Q96EB6 1-747): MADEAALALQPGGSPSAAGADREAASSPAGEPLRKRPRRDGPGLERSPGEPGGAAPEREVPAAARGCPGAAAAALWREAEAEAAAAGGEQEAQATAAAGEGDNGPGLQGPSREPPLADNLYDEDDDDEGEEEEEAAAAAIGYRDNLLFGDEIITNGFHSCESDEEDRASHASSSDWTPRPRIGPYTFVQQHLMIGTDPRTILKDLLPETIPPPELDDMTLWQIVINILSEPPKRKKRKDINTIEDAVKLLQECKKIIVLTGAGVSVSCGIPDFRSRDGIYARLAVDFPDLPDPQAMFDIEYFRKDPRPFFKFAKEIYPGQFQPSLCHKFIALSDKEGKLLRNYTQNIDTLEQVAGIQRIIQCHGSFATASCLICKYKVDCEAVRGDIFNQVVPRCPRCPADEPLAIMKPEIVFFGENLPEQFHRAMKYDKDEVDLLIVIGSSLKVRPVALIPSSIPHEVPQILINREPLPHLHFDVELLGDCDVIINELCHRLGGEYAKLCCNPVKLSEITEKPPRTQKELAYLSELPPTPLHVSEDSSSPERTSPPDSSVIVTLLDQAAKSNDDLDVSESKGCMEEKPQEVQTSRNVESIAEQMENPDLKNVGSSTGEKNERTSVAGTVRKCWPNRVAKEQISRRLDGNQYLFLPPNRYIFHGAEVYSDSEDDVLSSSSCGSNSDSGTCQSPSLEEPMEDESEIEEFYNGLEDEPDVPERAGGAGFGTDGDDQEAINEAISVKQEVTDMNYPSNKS
Put plainly: mass spectrometry based assay to identify modulators of SIRT1 activity. To be noted: 10 nM SIRT1, 0.5 μM peptide substrate, 120 μM βNAD+, 25 minutes at 25° C.; for Emax: 25 min, read-out: % FOLD ACT. (percent maximum fold activation). Format: biochemical. The text has this:
A mass spectrometry based assay was used to identify modulators of SIRT1 activity. The mass spectrometry based assay utilizes a peptide having 20 amino acid residues as follows: Ac-EE-K(biotin)-GQSTSSHSK(Ac)NleSTEG-K(5TMR)-EE-NH2 (SEQ ID NO: 1) wherein K(Ac) is an acetylated lysine residue and Nle is a norleucine. The peptide is labeled with the fluorophore 5TMR (excitation 540 nm/emission 580 nm) at the C-terminus. The sequence of the peptide substrate is based on p53 with several modifications. In addition, the methionine residue naturally present in the sequence was replaced with the norleucine because the methionine may be susceptible to oxidation during synthesis and purification.
The mass spectrometry assay is conducted as follows: 0.5 μM peptide substrate and 120 μM βNAD^+ is incubated with 10 nM SIRT1 for 25 minutes at 25° C. in a reaction buffer (50 mM Tris-acetate pH 8, 137 mM NaCl, 2.7 mM KCl, 1 mM MgCl2, 5 mM DTT, 0.05% BSA). Test compounds may be added to the reaction as described above. The SirT1 gene is cloned into a T7-promoter containing vector and transformed into BL21(DE3). After the 25 minute incubation with SIRT1, 10 μL of 10% formic acid is added to stop the reaction. Reactions are sealed and frozen for later mass spec analysis. Determination of the mass of the substrate peptide allows for precise determination of the degree of acetylation (i.e. starting material) as compared to deacetylated peptide (product).
A control for inhibition of sirtuin activity is conducted by adding 1 μL of 500 mM nicotinamide as a negative control at the start of the reaction (e.g., permits determination of maximum sirtuin inhibition). A control for activation of sirtuin activity is conducted using 10 nM of sirtuin protein, with 1 μL of DMSO in place of compound, to determine the amount of deacetylation of the substrate at a given timepoint within the linear range of the assay. This timepoint is the same as that used for test compounds and, within the linear range, the endpoint represents a change in velocity.
For the above assay, SIRT1 protein was expressed and purified as follows. The SirT1 gene was cloned into a T7-promoter containing vector and transformed into BL21(DE3). The protein was expressed by induction with 1 mM IPTG as an N-terminal His-tag fusion protein at 18° C. overnight and harvested at 30,000×g. Cells were lysed with lysozyme in lysis buffer (50 mM Tris-HCl, 2 mM Tris[2-carboxyethyl]phosphine (TCEP), 10 μM ZnCl2, 200 mM NaCl) and further treated with sonication for 10 min for complete lysis. The protein was purified over a Ni-NTA column (Amersham) and fractions containing pure protein were pooled, concentrated and run over a sizing column (Sephadex S200 26/60 global). The peak containing soluble protein was collected and run on an Ion-exchange column (MonoQ). Gradient elution (200 mM-500 mM NaCl) yielded pure protein. This protein was concentrated and dialyzed against dialysis buffer (20 mM Tris-HCl, 2 mM TCEP) overnight. The protein was aliquoted and frozen at −80° C. until further use.
Sirtuin modulating compounds that activated SIRT1 were identified using the assay described above and are shown below in Table 1. The EC1.5 values represent the concentration of test compounds that result in 150% activation of SIRT1. The EC1.5 values for the activating compounds are represented by A (EC1.5<10 μM), B (EC1-5 10-25 μM), C (EC1.5>25 μM). The percent maximum fold activation is represented by A (Fold activation >200%) or B (Fold Activation <200%).

For `O=C(Nc1cccc2c1C(=O)N(c1cccc(C(F)(F)F)c1)C2)c1cnccn1` [Compound 100, N-(3-oxo-2-(3-(trifluoromethyl)phenyl)isoindolin-4-yl)pyrazine-2-carboxamide], the “EC1.5 (concentration of test compound that results in 150% activation of SIRT1)” value is “A (EC1.5<10 μM)” and the Emax was less than 200%.

Consider `O=C(Cc1cccnc1)Nc1cccc2c1C(=O)N(c1cccc(C(F)(F)F)c1)C2` [Compound 101], for which the “EC1.5 (concentration of test compound that results in 150% activation of SIRT1)” value is “C (EC1.5>25 μM)” and the Emax is less than 200%.

Take `O=C(Cc1cccnc1)Nc1cccc2c1C(=O)N(c1cccc(OC3CCNCC3)c1)C2` [Compound 102, N-(3-oxo-2-(3-(piperidin-4-yloxy)phenyl)isoindolin-4-yl)-2-(pyridin-3-yl)acetamide]: the “EC1.5 (concentration of test compound that results in 150% activation of SIRT1)” value is “C (EC1.5>25 μM)” and the Emax is less than 200%.

Regarding `O=C(Cc1cccnc1)Nc1cccc2c1C(=O)N(c1cccc(O[C@@H]3CCNC3)c1)C2` [Compound 103], the “EC1.5 (concentration of test compound that results in 150% activation of SIRT1)” value is on record as “B (EC1-5 10-25 μM)” and the Emax was less than 200%.

Take `O=C(Cc1cccnc1)Nc1cccc2c1C(=O)N(c1cccc(-c3ccncc3)c1)C2` [Compound 104]: the “EC1.5 (concentration of test compound that results in 150% activation of SIRT1)” value is “C (EC1.5>25 μM)” and the Emax is less than 200%.

Consider `CC1(C(=O)Nc2cccc3c2C(=O)N(c2cccc(C(F)(F)F)c2)C3)CCCCC1` [Compound 105], for which the “EC1.5 (concentration of test compound that results in 150% activation of SIRT1)” value was “C (EC1.5>25 μM)” and the Emax was less than 200%.

Take `CC(C)(C(=O)Nc1cccc2c1C(=O)N(c1cccc(C(F)(F)F)c1)C2)c1ccccc1` [Compound 106]: the “EC1.5 (concentration of test compound that results in 150% activation of SIRT1)” value is given as “C (EC1.5>25 μM)” and the Emax is less than 200%.

For the compound `O=C(Cc1cccnc1)Nc1cccc2c1C(=O)N(c1cccc(OC(F)(F)F)c1)C2` [Compound 107], the “EC1.5 (concentration of test compound that results in 150% activation of SIRT1)” value was “C (EC1.5>25 μM)” and the Emax was less than 200%.

In the case of `O=C(Nc1cccc2c1C(=O)N(c1cccc(OC(F)(F)F)c1)C2)C1CCCC1` [Compound 108], the “EC1.5 (concentration of test compound that results in 150% activation of SIRT1)” value is listed as “C (EC1.5>25 μM)” and the Emax is less than 200%.

Turning to `O=C(Cc1ccccc1F)Nc1cccc2c1C(=O)N(c1cccc(C(F)(F)F)c1)C2` [Compound 109], the “EC1.5 (concentration of test compound that results in 150% activation of SIRT1)” value is recorded as “C (EC1.5>25 μM)” and the Emax is less than 200%.

`O=C(Cc1cccc(F)c1)Nc1cccc2c1C(=O)N(c1cccc(C(F)(F)F)c1)C2` [Compound 110]: the “EC1.5 (concentration of test compound that results in 150% activation of SIRT1)” value is “C (EC1.5>25 μM)” and the Emax is less than 200%.

In the case of `O=C(Nc1cccc2c1C(=O)N(c1cccc(C(F)(F)F)c1)C2)C1CCOCC1` [Compound 111], the “EC1.5 (concentration of test compound that results in 150% activation of SIRT1)” value was “A (EC1.5<10 μM)” and the Emax was less than 200%.

Consider `O=C(CC1CCCC1)Nc1cccc2c1C(=O)N(c1cccc(C(F)(F)F)c1)C2` [Compound 112], for which the “EC1.5 (concentration of test compound that results in 150% activation of SIRT1)” value is reported as “C (EC1.5>25 μM)” and the Emax was less than 200%.

As to `O=C(Cc1ccc(F)cc1)Nc1cccc2c1C(=O)N(c1cccc(C(F)(F)F)c1)C2` [Compound 113], the “EC1.5 (concentration of test compound that results in 150% activation of SIRT1)” value was “C (EC1.5>25 μM)” and the Emax was less than 200%.

For `Cc1ccccc1N1Cc2cccc(NC(=O)Cc3cccnc3)c2C1=O` [Compound 114], the “EC1.5 (concentration of test compound that results in 150% activation of SIRT1)” value was “C (EC1.5>25 μM)” and the Emax is less than 200%.

With `Cc1cccc(N2Cc3cccc(NC(=O)Cc4cccnc4)c3C2=O)c1` [Compound 115], the “EC1.5 (concentration of test compound that results in 150% activation of SIRT1)” value was “C (EC1.5>25 μM)” and the Emax is less than 200%.

Turning to `COc1cccc(N2Cc3cccc(NC(=O)Cc4cccnc4)c3C2=O)c1` [Compound 116], the “EC1.5 (concentration of test compound that results in 150% activation of SIRT1)” value is given as “C (EC1.5>25 μM)” and the Emax is less than 200%.

As for `Cc1ccc(N2Cc3cccc(NC(=O)Cc4cccnc4)c3C2=O)cc1` [Compound 117], the “EC1.5 (concentration of test compound that results in 150% activation of SIRT1)” value is on record as “C (EC1.5>25 μM)” and the Emax is less than 200%.

For the compound `COc1ccc(N2Cc3cccc(NC(=O)Cc4cccnc4)c3C2=O)cc1` [Compound 118], the “EC1.5 (concentration of test compound that results in 150% activation of SIRT1)” value is “C (EC1.5>25 μM)” and the Emax was less than 200%.

In the case of `COc1ccccc1N1Cc2cccc(NC(=O)Cc3cccnc3)c2C1=O` [Compound 119], the “EC1.5 (concentration of test compound that results in 150% activation of SIRT1)” value is listed as “C (EC1.5>25 μM)” and the Emax is less than 200%.

Take `O=C(Nc1cccc2c1C(=O)N(c1cccc(C(F)(F)F)c1)C2)c1ccccn1` [Compound 120]: the “EC1.5 (concentration of test compound that results in 150% activation of SIRT1)” value is reported as “C (EC1.5>25 μM)” and the Emax was less than 200%.

Consider `O=C(Nc1cccc2c1C(=O)N(c1cccc(C(F)(F)F)c1)C2)c1cccnc1` [Compound 121], for which the “EC1.5 (concentration of test compound that results in 150% activation of SIRT1)” value was “C (EC1.5>25 μM)” and the Emax is less than 200%.

For `O=C(Nc1cccc2c1C(=O)N(c1cccc(C(F)(F)F)c1)C2)c1ncccn1` [Compound 122], the “EC1.5 (concentration of test compound that results in 150% activation of SIRT1)” value is reported as “A (EC1.5<10 μM)” and the Emax is less than 200%.

On to `O=C(Nc1cccc2c1C(=O)N(c1cccc(C(F)(F)F)c1)C2)c1ccncc1` [Compound 123], for which the “EC1.5 (concentration of test compound that results in 150% activation of SIRT1)” value is recorded as “B (EC1-5 10-25 μM)” and the Emax is less than 200%.

As for `O=C(Nc1cccc2c1C(=O)N(c1cccc(C(F)(F)F)c1)C2)c1cscn1` [Compound 124], the “EC1.5 (concentration of test compound that results in 150% activation of SIRT1)” value is “C (EC1.5>25 μM)” and the Emax was less than 200%.

For `O=C(Nc1cccc2c1C(=O)N(c1cccc(C(F)(F)F)c1)C2)c1ccc(CN2CCCC2)cc1` [Compound 125], the “EC1.5 (concentration of test compound that results in 150% activation of SIRT1)” value is on record as “A (EC1.5<10 μM)” and the Emax is less than 200%.

For `O=C(Nc1cccc2c1C(=O)N(c1cccc(C(F)(F)F)c1)C2)c1cncnc1` [Compound 126], the “EC1.5 (concentration of test compound that results in 150% activation of SIRT1)” value is reported as “C (EC1.5>25 μM)” and the Emax was less than 200%.

On to `O=C(Nc1cccc2c1C(=O)N(c1cccc(C(F)(F)F)c1)C2)c1ccncn1` [Compound 127], for which the “EC1.5 (concentration of test compound that results in 150% activation of SIRT1)” value is “C (EC1.5>25 μM)” and the Emax is less than 200%.
